This is an account of results in patent US6960594B2, “Thiophene and furan 2,5-dicarboxamides useful in the treatment of cancer” (Shire BioChem Inc., priority 1998, dated 2005).

Assay [1] deals with Chick chorioallantoic membrane (CAM) capillary formation driven by VPF/VEGF165. Briefly: Chick chorioallantoic membrane (CAM) mesh assay. It is filed as in vivo, chicken. Particulars: significant if >25%. The protocol: Fertilized white leghorn chicken eggs (SPAFAS Inc., Norwich, Conn.) were received at day 0 and incubated for 3 days at 37 C with constant humidity. On day 3, eggs were rinsed with 70% ethanol and opened into 100 mm^2 tissue culture coated Petri dishes under aseptic conditions. The embryos were then returned to a humidified 38 C incubator for 7-9 additional days.
Vitrogen (Collagen Biomaterials, Palo Alto, Calif.) at a final concentration of 0.73 mg/mL and Matrigel (Becton Dickinson, Bedford, Mass.) at a final concentration of 10 mg/mL was directly pipetted onto Nylon meshes with 250 μm^2 openings which were cut into 4 mm×4 mm squares and autoclaved. Polymerization of meshes were under aseptic conditions, on bacteriological Petri dishes. The polymerization conditions for each substrate were identical; after mixing with or without 250 μg of VPF/VEGF165 (Peprotech, Rocky Hill, N.J.) and/or compounds of interest, 40 μL were pipetted onto each mesh in a bacteriological Petri dish. The Petri dish was placed in a humidified 37 C incubator with 5% CO2 for 30 minutes to allow polymerization followed by an incubation at 4° C. for 2 hours.
In a tissue culture enclosure, meshes were placed onto the periphery of the CAM of a day 12-14 embryo, excluding areas containing major vessels. The embryos were then returned to the humidified 38° C. incubator with 3% CO2 for 24 to 48 additional hours.
Embryos were removed from the incubator and meshes were viewed under a dissecting microscope for gross evaluation. Injection of 400 μL FITC dextran, MW 2,000,000 (Sigma, St. Louis, Mo.) through glass microcapillary tubes by infusion into the umbilical vein was performed at a rate of 200 μl per minute. The FITC dextran was allowed to circulate for 5 minutes and 3.7% formaldehyde in PBS was applied directly on each mesh. The embryos were then incubated at 40° C. for 5 minutes and the meshes were dissected off the CAM and fixed in 3.7% formaldehyde for 10 minutes to overnight.
After fixation, meshes were mounted on slides with 90% glycerol in PBS and visualized on an inverted fluorescence microscope. A Nikon Diaphot with a Sony DXC-151A camera attached to the side port was used for capture of images and analysis was with the NIH Image 1.61 software program. For each mesh, 5 random staggered images (approximately 600 μm each) were captured. The areas of high intensity were highlighted and measured. Results are expressed as ability to suppress capillary formation after subtraction from negative control. Values were calculated as a inhibition, considering 100% the capillary density achieved by VPF in the presence of vitrogen alone minus the bakground levels in the absence of VPF. Negative values indicated angiogenic stimulation above the VPF positive control.

Assay [2] has as its system HT29. The experiment in a line: Cell proliferation and cytotoxicity MTT assay, HT29. Particulars: Homo sapiens, HT-29, 72 hours culture. It is filed as cell-based. The protocol:
The wells of microtiter plates were seeded with 2000 cells/well T24, 2500 cells/well HT29 or 5000 cells/well HMVEC (Cell Systems) in 100 uL, followed by an overnight culture for cell adhesion. The next day, the media is supplemented with 100 uL of 10-fold dilution of compound of interest starting at 10 uM. Following culture for 72 hours, 3-(4,5-dimethyl-2-thiazolyl)-2,5-diphenyltetrazolium bromide (MTT; Sigma) at 2 mg/mL was added to each well (50 uL/well) and further incubated for 4 hours at 37° C. The medium was flicked out and 200 uL of a 1:1 solution of ethanol:acetone followed by 25 uL of glycine buffer (0.1 M glycine, 0.1M NaCl, pH 10.5) is added and the color measured by the absorbance at 570 nm.
For orientation: Tetrazolium dyes change colour on reduction, which living cells bring about.

On to `NCCCNC(=O)c1ccc(C(=O)NC(CC(=O)O)c2ccccc2)s1.O=C(O)C(F)(F)F` (centres unmarked) [Compound VII, 3-{[5-(3-Amino-propylcarbamoyl)-thiophene-2-carbonyl]-amino}-3-phenyl-propionic acid trifluoroacetic acid salt], for which, in assay [1], the “% of inhibition at 33 μg/mesh in the presence of VEGF” value is on record as 34%. The concentration for half-maximal inhibition (IC50) (commonly the concentration that gives 50% inhibition) in assay [2] is over 10 µM.
